Measured values published in the NIST ThermoML archive (doi:10.1021/je101086r).

Assay: xn = mol fraction of the nth substance listed
Settings: Pycnometric method

CC1COC(=O)O1 (configuration not stated) [4-methyl-1,3-dioxolan-2-one] + O=C=O
Settings | mass density [kg/m3]
313 K, 2000 kPa, Gas, x2 = 0.9953 | 47.6
313 K, 2000 kPa, Liquid, x2 = 0.2593 | 1170
313 K, 3000 kPa, Gas, x2 = 0.9895 | 73
313 K, 3000 kPa, Liquid, x2 = 0.3384 | 1170
313 K, 4000 kPa, Gas, x2 = 0.9864 | 97.2
313 K, 4000 kPa, Liquid, x2 = 0.4022 | 1160
313 K, 5000 kPa, Gas, x2 = 0.9894 | 136.8
313 K, 5000 kPa, Liquid, x2 = 0.4548 | 1164.8
313 K, 6000 kPa, Gas, x2 = 0.9963 | 170.5
313 K, 6000 kPa, Liquid, x2 = 0.4919 | 1156
313 K, 7000 kPa, Gas, x2 = 0.99 | 224.7
313 K, 7000 kPa, Liquid, x2 = 0.542 | 1141.4
313 K, 8000 kPa, Gas, x2 = 0.99 | 244
313 K, 8000 kPa, Liquid, x2 = 0.5706 | 1129.7
313 K, 9000 kPa, Gas, x2 = 0.9907 | 276.7
313 K, 9000 kPa, Liquid, x2 = 0.6169 | 1109.2
313 K, 10000 kPa, Gas, x2 = 0.9841 | 339.9
313 K, 10000 kPa, Liquid, x2 = 0.6579 | 1089.3
313 K, 11000 kPa, Gas, x2 = 0.9866 | 366.2
313 K, 11000 kPa, Liquid, x2 = 0.6915 | 1073
313 K, 12000 kPa, Gas, x2 = 0.9694 | 390.8
313 K, 12000 kPa, Liquid, x2 = 0.7279 | 1046.6
333 K, 3000 kPa, Gas, x2 = 0.9942 | 52
333 K, 3000 kPa, Liquid, x2 = 0.2425 | 1090.7
333 K, 4000 kPa, Gas, x2 = 0.9968 | 77.8
333 K, 4000 kPa, Liquid, x2 = 0.2787 | 1096.7
333 K, 5000 kPa, Gas, x2 = 0.9922 | 100.2
333 K, 5000 kPa, Liquid, x2 = 0.3272 | 1106.7
333 K, 6000 kPa, Gas, x2 = 0.9862 | 116.8
333 K, 6000 kPa, Liquid, x2 = 0.3723 | 1105.7
333 K, 7000 kPa, Gas, x2 = 0.9885 | 147.9
333 K, 7000 kPa, Liquid, x2 = 0.4079 | 1109.2
333 K, 8000 kPa, Gas, x2 = 0.9898 | 174.5
333 K, 8000 kPa, Liquid, x2 = 0.4512 | 1110.2
333 K, 9000 kPa, Gas, x2 = 0.984 | 199.6
333 K, 9000 kPa, Liquid, x2 = 0.4846 | 1102.2
333 K, 10000 kPa, Gas, x2 = 0.9855 | 230.2
333 K, 10000 kPa, Liquid, x2 = 0.5244 | 1091.2
333 K, 11000 kPa, Gas, x2 = 0.9812 | 271.3
333 K, 11000 kPa, Liquid, x2 = 0.5725 | 1077.1
333 K, 12000 kPa, Gas, x2 = 0.9888 | 326.5
333 K, 12000 kPa, Liquid, x2 = 0.6065 | 1061.1
333 K, 13000 kPa, Gas, x2 = 0.9883 | 411.2
333 K, 13000 kPa, Liquid, x2 = 0.6246 | 1052.5
353 K, 1000 kPa, Gas, x2 = 0.952 | 18.6
353 K, 1000 kPa, Liquid, x2 = 0.081 | 1011
353 K, 2000 kPa, Gas, x2 = 0.9663 | 32.2
353 K, 2000 kPa, Liquid, x2 = 0.115 | 1024.5
353 K, 3000 kPa, Gas, x2 = 0.9679 | 50.9
353 K, 3000 kPa, Liquid, x2 = 0.1518 | 1030
353 K, 4000 kPa, Gas, x2 = 0.9679 | 68.5
353 K, 4000 kPa, Liquid, x2 = 0.196 | 1040.8
353 K, 5000 kPa, Gas, x2 = 0.9591 | 84.4
353 K, 5000 kPa, Liquid, x2 = 0.2317 | 1044.3
353 K, 6000 kPa, Gas, x2 = 0.9866 | 100
353 K, 6000 kPa, Liquid, x2 = 0.2852 | 1054.8
353 K, 7000 kPa, Gas, x2 = 0.9836 | 115
353 K, 7000 kPa, Liquid, x2 = 0.3205 | 1062.4
353 K, 8000 kPa, Gas, x2 = 0.9922 | 164.5
353 K, 8000 kPa, Liquid, x2 = 0.351 | 1050
353 K, 9000 kPa, Gas, x2 = 0.9891 | 206
353 K, 9000 kPa, Liquid, x2 = 0.3881 | 1048.4
353 K, 10000 kPa, Gas, x2 = 0.9709 | 224.7
353 K, 10000 kPa, Liquid, x2 = 0.4112 | 1035.5
353 K, 11000 kPa, Gas, x2 = 0.9779 | 250
353 K, 11000 kPa, Liquid, x2 = 0.4485 | 997.5
353 K, 12000 kPa, Gas, x2 = 0.9719 | 300
353 K, 12000 kPa, Liquid, x2 = 0.492 | 970.4
353 K, 13000 kPa, Gas, x2 = 0.9842 | 320
353 K, 13000 kPa, Liquid, x2 = 0.5225 | 951.1
373 K, 3000 kPa, Gas, x2 = 0.9747 | 40
373 K, 3000 kPa, Liquid, x2 = 0.1384 | 1000
373 K, 4000 kPa, Gas, x2 = 0.9779 | 60.5
373 K, 4000 kPa, Liquid, x2 = 0.1638 | 1004.9
373 K, 5000 kPa, Gas, x2 = 0.98 | 82.7
373 K, 5000 kPa, Liquid, x2 = 0.2031 | 1005.4
373 K, 6000 kPa, Gas, x2 = 0.9802 | 95.9
373 K, 6000 kPa, Liquid, x2 = 0.2367 | 1011.5
373 K, 7000 kPa, Gas, x2 = 0.9784 | 125.9
373 K, 7000 kPa, Liquid, x2 = 0.2692 | 1000
373 K, 8000 kPa, Gas, x2 = 0.9795 | 149.8
373 K, 8000 kPa, Liquid, x2 = 0.2948 | 988.9
373 K, 9000 kPa, Gas, x2 = 0.9782 | 158
373 K, 9000 kPa, Liquid, x2 = 0.3268 | 980.9
373 K, 10000 kPa, Gas, x2 = 0.9847 | 181
373 K, 10000 kPa, Liquid, x2 = 0.3403 | 960.8
373 K, 11000 kPa, Gas, x2 = 0.9806 | 226.8
373 K, 11000 kPa, Liquid, x2 = 0.3805 | 940.7
373 K, 12000 kPa, Gas, x2 = 0.9848 | 241.7
373 K, 12000 kPa, Liquid, x2 = 0.39 | 935.1
373 K, 13000 kPa, Gas, x2 = 0.9844 | 264.9
373 K, 13000 kPa, Liquid, x2 = 0.4136 | 931.2

CCCC(=O)OCC [ethyl butanoate] + O=C=O
Settings | mass density [kg/m3]
313 K, 2000 kPa, Gas, x2 = 0.9978 | 39.4
313 K, 2000 kPa, Liquid, x2 = 0.3795 | 919.1
313 K, 3000 kPa, Gas, x2 = 0.9926 | 61.3
313 K, 3000 kPa, Liquid, x2 = 0.4919 | 901
313 K, 4000 kPa, Gas, x2 = 0.9951 | 96.8
313 K, 4000 kPa, Liquid, x2 = 0.6053 | 867.6
313 K, 5000 kPa, Gas, x2 = 0.9938 | 141.2
313 K, 5000 kPa, Liquid, x2 = 0.7204 | 841.3
313 K, 6000 kPa, Gas, x2 = 0.9941 | 222.9
313 K, 6000 kPa, Liquid, x2 = 0.8124 | 813.8
313 K, 7000 kPa, Gas, x2 = 0.9888 | 300
313 K, 7000 kPa, Liquid, x2 = 0.8876 | 789.8
313 K, 8000 kPa, Gas, x2 = 0.9616 | 450
313 K, 8000 kPa, Liquid, x2 = 0.9495 | 744.8
333 K, 2000 kPa, Gas, x2 = 0.967 | 38.2
333 K, 2000 kPa, Liquid, x2 = 0.3088 | 801.5
333 K, 3000 kPa, Gas, x2 = 0.9751 | 57
333 K, 3000 kPa, Liquid, x2 = 0.3978 | 806.9
333 K, 4000 kPa, Gas, x2 = 0.9726 | 82.4
333 K, 4000 kPa, Liquid, x2 = 0.491 | 804.4
333 K, 5000 kPa, Gas, x2 = 0.9713 | 120.5
333 K, 5000 kPa, Liquid, x2 = 0.5707 | 786.8
333 K, 6000 kPa, Gas, x2 = 0.9709 | 164.2
333 K, 6000 kPa, Liquid, x2 = 0.6514 | 781.3
333 K, 7000 kPa, Gas, x2 = 0.9706 | 258.1
333 K, 7000 kPa, Liquid, x2 = 0.7285 | 752.2
333 K, 8000 kPa, Gas, x2 = 0.9716 | 298.4
333 K, 8000 kPa, Liquid, x2 = 0.8105 | 726.6
333 K, 9000 kPa, Gas, x2 = 0.9541 | 375.1
333 K, 9000 kPa, Liquid, x2 = 0.8711 | 692
333 K, 10000 kPa, Gas, x2 = 0.92 | 426.5
333 K, 10000 kPa, Liquid, x2 = 0.9039 | 670
353 K, 2000 kPa, Gas, x2 = 0.9121 | 34.5
353 K, 2000 kPa, Liquid, x2 = 0.2195 | 762.9
353 K, 3000 kPa, Gas, x2 = 0.9126 | 46.2
353 K, 3000 kPa, Liquid, x2 = 0.2919 | 764.7
353 K, 4000 kPa, Gas, x2 = 0.9151 | 68.5
353 K, 4000 kPa, Liquid, x2 = 0.356 | 765.8
353 K, 5000 kPa, Gas, x2 = 0.9166 | 106.5
353 K, 5000 kPa, Liquid, x2 = 0.4259 | 758.8
353 K, 6000 kPa, Gas, x2 = 0.9166 | 150.4
353 K, 6000 kPa, Liquid, x2 = 0.4863 | 753
353 K, 7000 kPa, Gas, x2 = 0.9189 | 215.9
353 K, 7000 kPa, Liquid, x2 = 0.5364 | 734.8
353 K, 8000 kPa, Gas, x2 = 0.9142 | 258
353 K, 8000 kPa, Liquid, x2 = 0.5983 | 719.6
353 K, 9000 kPa, Gas, x2 = 0.9127 | 308.3
353 K, 9000 kPa, Liquid, x2 = 0.6685 | 685.1
353 K, 10000 kPa, Gas, x2 = 0.91 | 331.7
353 K, 10000 kPa, Liquid, x2 = 0.7399 | 655.8
353 K, 11000 kPa, Gas, x2 = 0.89 | 375
353 K, 11000 kPa, Liquid, x2 = 0.8222 | 655.2
373 K, 2000 kPa, Gas, x2 = 0.867 | 30.6
373 K, 2000 kPa, Liquid, x2 = 0.18 | 627.3
373 K, 3000 kPa, Gas, x2 = 0.8751 | 45.1
373 K, 3000 kPa, Liquid, x2 = 0.2406 | 665.4
373 K, 4000 kPa, Gas, x2 = 0.8726 | 64.7
373 K, 4000 kPa, Liquid, x2 = 0.3086 | 675.5
373 K, 5000 kPa, Gas, x2 = 0.8713 | 96.5
373 K, 5000 kPa, Liquid, x2 = 0.3859 | 686.5
373 K, 6000 kPa, Gas, x2 = 0.8709 | 126.4
373 K, 6000 kPa, Liquid, x2 = 0.4129 | 675
373 K, 7000 kPa, Gas, x2 = 0.8706 | 171
373 K, 7000 kPa, Liquid, x2 = 0.4862 | 659.4
373 K, 8000 kPa, Gas, x2 = 0.8716 | 201.1
373 K, 8000 kPa, Liquid, x2 = 0.5222 | 647.4
373 K, 9000 kPa, Gas, x2 = 0.8766 | 233.2
373 K, 9000 kPa, Liquid, x2 = 0.5764 | 639.9
373 K, 10000 kPa, Gas, x2 = 0.856 | 259.8
373 K, 10000 kPa, Liquid, x2 = 0.6256 | 628.8
